Reference: ChEMBL document CHEMBL6109052, “Overview of the epigenetic/cytotoxic dual-target inhibitors for cancer therapy” (Eur J Med Chem, 2025)
Each block holds one compound with its values, some of them ahead of it.

Columns and labels:
DNA topoisomerase 1 = DNA topoisomerase 1 (Homo sapiens, UniProt P11387); test: Inhibition of Topoisomerase 1 (unknown origin)
Tubulin = test: Inhibition of tubulin polymerization (unknown origin); type: protein-complex assay, Homo sapiens
Histone deacetylase 3 = Histone deacetylase 3 (Homo sapiens, UniProt O15379); test: Inhibition of HDAC3 (unknown origin)
Histone deacetylase 8 = Histone deacetylase 8 (Homo sapiens, UniProt Q9BY41); test: Inhibition of HDAC8 (unknown origin)
[1] = biological target: T1, Protein deacetylase HDAC6 (Homo sapiens, UniProt Q9UBN7); test: Inhibition of HDAC6 (unknown origin)
T1 sequence (Q9UBN7 whole entry): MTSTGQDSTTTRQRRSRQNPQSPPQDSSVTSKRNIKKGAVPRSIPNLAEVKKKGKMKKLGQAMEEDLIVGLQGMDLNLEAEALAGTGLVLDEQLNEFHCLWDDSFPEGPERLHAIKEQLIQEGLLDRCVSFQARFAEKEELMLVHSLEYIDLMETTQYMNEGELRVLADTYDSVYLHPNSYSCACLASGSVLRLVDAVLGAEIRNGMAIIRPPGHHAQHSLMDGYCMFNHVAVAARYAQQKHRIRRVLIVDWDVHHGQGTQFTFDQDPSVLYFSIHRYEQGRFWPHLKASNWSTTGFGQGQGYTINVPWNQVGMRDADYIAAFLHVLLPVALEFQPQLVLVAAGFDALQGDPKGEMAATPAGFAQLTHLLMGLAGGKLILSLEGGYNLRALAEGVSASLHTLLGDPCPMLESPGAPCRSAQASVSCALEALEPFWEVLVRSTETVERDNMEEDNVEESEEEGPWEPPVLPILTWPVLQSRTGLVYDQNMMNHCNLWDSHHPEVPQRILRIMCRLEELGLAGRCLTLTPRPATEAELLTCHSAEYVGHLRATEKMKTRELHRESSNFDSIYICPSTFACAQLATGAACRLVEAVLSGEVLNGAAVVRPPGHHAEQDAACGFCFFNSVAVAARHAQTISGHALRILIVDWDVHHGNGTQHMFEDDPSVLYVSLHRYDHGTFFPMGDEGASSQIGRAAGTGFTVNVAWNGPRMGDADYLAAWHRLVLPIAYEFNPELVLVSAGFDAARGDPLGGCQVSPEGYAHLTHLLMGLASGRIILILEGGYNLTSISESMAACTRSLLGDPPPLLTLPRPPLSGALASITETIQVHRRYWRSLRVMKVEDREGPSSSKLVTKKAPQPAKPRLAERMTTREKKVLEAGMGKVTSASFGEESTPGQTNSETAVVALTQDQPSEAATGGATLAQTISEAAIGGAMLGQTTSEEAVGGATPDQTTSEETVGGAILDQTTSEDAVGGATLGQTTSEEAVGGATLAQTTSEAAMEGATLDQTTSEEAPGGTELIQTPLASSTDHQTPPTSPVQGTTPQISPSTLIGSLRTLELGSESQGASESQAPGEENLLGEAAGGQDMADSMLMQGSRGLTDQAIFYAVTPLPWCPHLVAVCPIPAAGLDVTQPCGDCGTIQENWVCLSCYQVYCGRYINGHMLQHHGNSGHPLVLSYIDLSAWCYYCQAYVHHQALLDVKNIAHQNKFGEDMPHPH

Histone deacetylase 2 = Histone deacetylase 2 (Homo sapiens, UniProt Q92769); test: Inhibition of HDAC2 (unknown origin)
Histone deacetylase 1 [2] = biological target: T2, Histone deacetylase 1 (Homo sapiens, UniProt Q13547); test: Inhibition of HDAC1 (unknown origin)
[3] = Inhibition of human recombinant HDAC2 using fluorogenic peptide p53 (379 to 382 residues) RHKK(Ac) as substrate by fluorescence based analysis
DU-145 = test: Antiproliferative activity against human DU-145 cells assessed as reduction in cell growth incubated for 72 hrs by SRB assay; type: functional, cell-based; settings: DU-145, 72 h
HepG2 [4] = test: Antiproliferative activity against human HepG2 cells assessed as reduction in cell growth incubated for 72 hrs by SRB assay; type: functional, cell-based; settings: HepG2, 72 h
[5] = biological target: T1, Protein deacetylase HDAC6; test: Inhibition of human recombinant HDAC6 using fluorogenic peptide p53 (379 to 382 residues) RHKK(Ac) as substrate by fluorescence based analysis
A2780 = test: Antiproliferative activity against human A2780 cells assessed as reduction in cell growth incubated for 72 hrs by SRB assay; type: functional, cell-based; settings: A2780, 72 h
A-431 = test: Antiproliferative activity against human A-431 cells assessed as reduction in cell growth incubated for 72 hrs by SRB assay; type: functional, cell-based; settings: A-431, 72 h
CAPAN-1 = test: Antiproliferative activity against human CAPAN-1 cells assessed as reduction in cell growth incubated for 72 hrs by SRB assay; type: functional, cell-based; settings: CAPAN-1, 72 h
NCI-H460 = test: Antiproliferative activity against human NCI-H460 cells assessed as reduction in cell growth incubated for 72 hrs by SRB assay; type: functional, cell-based; settings: NCI-H460, 72 h
[6] = Cytotoxicity against human MM472 cells assessed as reduction in cell viability incubated for 72 hrs by SRB assay; type: functional, cell-based; settings: MM472, 72 h
HT-29 [7] = test: Antiproliferative activity against human HT-29 cells assessed as reduction in cell growth incubated for 72 hrs by SRB assay; type: functional, cell-based; settings: HT-29, 72 h
[8] = biological target: Polyamine deacetylase HDAC10 (Homo sapiens, UniProt Q969S8); test: Inhibition of human recombinant HDAC10 using fluorogenic peptide p53 (379 to 382 residues) RHKK(Ac) as substrate by fluorescence based analysis
[9] = Antiproliferative activity against human Doxorubicin-resistant A2780-DX cells assessed as reduction in cell growth incubated for 72 hrs by SRB assay; type: functional, cell-based
HeLa = test: Antiproliferative activity against human Hela cells assessed as reduction in cell growth incubated for 72 hrs by SRB assay; type: functional, cell-based
Histone deacetylase 1 [10] = biological target: T2, Histone deacetylase 1; test: Inhibition of human recombinant HDAC1 using fluorogenic peptide p53 (379 to 382 residues) RHKK(Ac) as substrate by fluorescence based analysis
A549 [11] = test: Antiproliferative activity against human A549 cells; type: functional, cell-based
HepG2 [12] = test: Antiproliferative activity against human HepG2 cells; type: functional, cell-based
HT-29 [13] = test: Antiproliferative activity against human HT-29 cells; type: functional, cell-based
EA.hy 926 = test: Antiproliferative activity against human EA.hy 926 cells assessed as reduction in cell growth incubated for 72 hrs by MTT assay; type: functional, cell-based; settings: EA.hy 926, 72 h
HCT-116 [14] = test: Antiproliferative activity against human HCT-116 cells assessed as reduction in cell viability incubated for 48 hrs by MTT assay; type: functional, cell-based; settings: HCT-116, 48 h
HCC1937 = test: Antiproliferative activity against human HCC1937 cells assessed as reduction in cell viability incubated for 48 hrs by MTT assay; type: functional, cell-based; settings: HCC1937, 48 h
[15] = biological target: T3, Poly [ADP-ribose] polymerase 1 (Homo sapiens, UniProt P09874); test: Inhibition of PARP-1 (unknown origin)
MCF7 = test: Antiproliferative activity against human MCF7 cells assessed as reduction in cell viability incubated for 48 hrs by MTT assay; type: functional, cell-based; settings: MCF7, 48 h
K562 = test: Antiproliferative activity against human K562 cells assessed as reduction in cell viability incubated for 48 hrs by MTT assay; type: functional, cell-based; settings: K562, 48 h
Bel-7402 = test: Antitumor activity against human Bel-7402 cells xenografted in nude mouse model assessed as tumor growth inhibition at 50 mg/kg, IG administered for 21 days relative to control; settings: Bel-7402, po, 504 h, read-out: TGI
HepG2 [16] = test: Antiproliferative activity against human HepG2 cells assessed as reduction in cell viability incubated for 48 hrs by MTT assay; settings: HepG2, 48 h
SNU-475 = test: Antiproliferative activity against human SNU-475 cells assessed as reduction in cell viability incubated for 48 hrs by MTT assay; settings: SNU-475, 48 h
[17] = Oral bioavailability in BALB/c mouse at 50 mg/kg by LC-MS/MS analysis; type: ADME, organism-based; settings: in vivo
HCT-116 [18] = test: Antiproliferative activity against human HCT-116 cells assessed as reduction in cell viability incubated for 3 days by Cell-titer glo reagent based assay; type: functional; settings: HCT-116, 72 h
A549 [19] = test: Antiproliferative activity against human A549 cells assessed as reduction in cell viability incubated for 3 days by Cell-titer glo reagent based assay; type: functional; settings: A549, 72 h
[20] = biological target: T3, Poly [ADP-ribose] polymerase 1; test: Inhibition of PARP1 (unknown origin)
[21] = Half life in BALB/c mouse at 50 mg/kg, po by LC-MS/MS analysis; type: ADME, organism-based; settings: in vivo
Histone deacetylase 5 = Histone deacetylase 5 (Homo sapiens, UniProt Q9UQL6); test: Inhibition of HDAC5 (unknown origin)
Histone deacetylase 4 = Histone deacetylase 4 (Homo sapiens, UniProt P56524); test: Inhibition of HDAC4 (unknown origin)
MGC-803 = test: Antiproliferative activity against human MGC-803 cells by MTT assay; type: functional, cell-based
[22] = Metabolic stability in human liver microsomes assessed as half life for 30 mins by LC-MS/MS analysis; type: ADME, Microsome
[23] = Metabolic stability in human liver microsomes assessed as intrinsic clearance measured for 30 mins by LC-MS/MS analysis; type: ADME, Microsome; settings: read-out: CLH

Chain of Histone deacetylase 3 (O15379 whole entry): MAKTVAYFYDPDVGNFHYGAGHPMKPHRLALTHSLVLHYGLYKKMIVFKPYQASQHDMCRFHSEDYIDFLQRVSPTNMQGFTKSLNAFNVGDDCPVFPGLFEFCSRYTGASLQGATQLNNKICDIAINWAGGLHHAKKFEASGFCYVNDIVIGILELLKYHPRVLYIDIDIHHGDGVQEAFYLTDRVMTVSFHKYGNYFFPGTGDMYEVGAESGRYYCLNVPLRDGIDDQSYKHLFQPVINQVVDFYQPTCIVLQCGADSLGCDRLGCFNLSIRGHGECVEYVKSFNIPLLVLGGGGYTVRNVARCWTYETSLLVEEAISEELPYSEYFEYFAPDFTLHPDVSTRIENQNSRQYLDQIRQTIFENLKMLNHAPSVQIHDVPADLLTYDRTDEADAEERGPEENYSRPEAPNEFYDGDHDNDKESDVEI
T2 sequence (Q13547 whole entry, the tested form may be a part): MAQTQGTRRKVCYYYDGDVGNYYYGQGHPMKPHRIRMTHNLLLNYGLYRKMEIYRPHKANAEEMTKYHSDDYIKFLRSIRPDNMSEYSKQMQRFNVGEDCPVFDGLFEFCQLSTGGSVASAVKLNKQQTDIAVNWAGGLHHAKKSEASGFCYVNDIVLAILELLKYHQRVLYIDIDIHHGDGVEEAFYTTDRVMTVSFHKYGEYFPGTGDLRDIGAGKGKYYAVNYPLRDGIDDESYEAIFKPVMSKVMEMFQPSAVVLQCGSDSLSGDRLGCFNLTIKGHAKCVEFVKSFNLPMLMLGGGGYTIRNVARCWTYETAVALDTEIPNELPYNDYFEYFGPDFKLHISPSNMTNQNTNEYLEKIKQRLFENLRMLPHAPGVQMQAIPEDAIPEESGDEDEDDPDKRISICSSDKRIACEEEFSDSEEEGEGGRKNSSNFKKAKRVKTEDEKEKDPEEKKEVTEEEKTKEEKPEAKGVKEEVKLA
Chain of Histone deacetylase 2 (Q92769 whole entry): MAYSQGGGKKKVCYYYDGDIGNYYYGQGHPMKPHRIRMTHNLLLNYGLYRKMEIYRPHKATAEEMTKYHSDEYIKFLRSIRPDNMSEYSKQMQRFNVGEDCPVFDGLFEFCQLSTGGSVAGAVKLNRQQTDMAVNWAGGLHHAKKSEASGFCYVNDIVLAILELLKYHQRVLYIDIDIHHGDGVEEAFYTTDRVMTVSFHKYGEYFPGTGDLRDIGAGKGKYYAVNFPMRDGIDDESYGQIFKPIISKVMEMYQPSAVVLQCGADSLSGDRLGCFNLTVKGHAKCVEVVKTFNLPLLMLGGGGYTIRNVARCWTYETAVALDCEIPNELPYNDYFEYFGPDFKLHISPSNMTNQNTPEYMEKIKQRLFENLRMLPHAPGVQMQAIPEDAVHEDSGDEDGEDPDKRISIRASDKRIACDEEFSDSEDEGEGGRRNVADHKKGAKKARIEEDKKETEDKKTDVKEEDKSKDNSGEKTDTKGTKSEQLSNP
T3 sequence (P09874 whole entry): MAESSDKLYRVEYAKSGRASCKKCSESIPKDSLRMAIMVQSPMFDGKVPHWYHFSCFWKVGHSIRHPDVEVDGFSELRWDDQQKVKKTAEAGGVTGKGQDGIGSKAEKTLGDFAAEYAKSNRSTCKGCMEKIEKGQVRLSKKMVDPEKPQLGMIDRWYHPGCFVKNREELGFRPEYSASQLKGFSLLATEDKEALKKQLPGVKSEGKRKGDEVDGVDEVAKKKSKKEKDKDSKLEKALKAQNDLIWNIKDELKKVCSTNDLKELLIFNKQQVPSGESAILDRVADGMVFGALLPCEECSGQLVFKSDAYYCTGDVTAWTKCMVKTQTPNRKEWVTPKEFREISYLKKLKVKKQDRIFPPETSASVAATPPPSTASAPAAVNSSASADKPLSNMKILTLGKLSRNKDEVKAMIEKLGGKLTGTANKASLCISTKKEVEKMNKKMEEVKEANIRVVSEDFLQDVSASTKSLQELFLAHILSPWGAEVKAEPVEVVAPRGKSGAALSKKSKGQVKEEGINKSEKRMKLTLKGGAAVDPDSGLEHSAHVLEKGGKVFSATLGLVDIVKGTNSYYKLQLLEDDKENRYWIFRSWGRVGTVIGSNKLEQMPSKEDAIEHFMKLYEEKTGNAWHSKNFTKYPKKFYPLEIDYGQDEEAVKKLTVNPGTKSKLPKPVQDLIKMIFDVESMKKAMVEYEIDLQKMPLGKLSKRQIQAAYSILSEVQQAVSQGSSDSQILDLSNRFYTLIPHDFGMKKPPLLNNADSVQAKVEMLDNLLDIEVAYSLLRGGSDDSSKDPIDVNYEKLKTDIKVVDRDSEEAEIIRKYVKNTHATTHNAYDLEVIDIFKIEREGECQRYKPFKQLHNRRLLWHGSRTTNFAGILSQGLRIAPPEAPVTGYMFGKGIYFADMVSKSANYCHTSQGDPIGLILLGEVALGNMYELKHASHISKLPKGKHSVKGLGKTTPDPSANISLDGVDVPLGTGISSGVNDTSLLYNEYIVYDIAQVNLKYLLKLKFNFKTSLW
Chain of Histone deacetylase 5 (Q9UQL6 whole entry): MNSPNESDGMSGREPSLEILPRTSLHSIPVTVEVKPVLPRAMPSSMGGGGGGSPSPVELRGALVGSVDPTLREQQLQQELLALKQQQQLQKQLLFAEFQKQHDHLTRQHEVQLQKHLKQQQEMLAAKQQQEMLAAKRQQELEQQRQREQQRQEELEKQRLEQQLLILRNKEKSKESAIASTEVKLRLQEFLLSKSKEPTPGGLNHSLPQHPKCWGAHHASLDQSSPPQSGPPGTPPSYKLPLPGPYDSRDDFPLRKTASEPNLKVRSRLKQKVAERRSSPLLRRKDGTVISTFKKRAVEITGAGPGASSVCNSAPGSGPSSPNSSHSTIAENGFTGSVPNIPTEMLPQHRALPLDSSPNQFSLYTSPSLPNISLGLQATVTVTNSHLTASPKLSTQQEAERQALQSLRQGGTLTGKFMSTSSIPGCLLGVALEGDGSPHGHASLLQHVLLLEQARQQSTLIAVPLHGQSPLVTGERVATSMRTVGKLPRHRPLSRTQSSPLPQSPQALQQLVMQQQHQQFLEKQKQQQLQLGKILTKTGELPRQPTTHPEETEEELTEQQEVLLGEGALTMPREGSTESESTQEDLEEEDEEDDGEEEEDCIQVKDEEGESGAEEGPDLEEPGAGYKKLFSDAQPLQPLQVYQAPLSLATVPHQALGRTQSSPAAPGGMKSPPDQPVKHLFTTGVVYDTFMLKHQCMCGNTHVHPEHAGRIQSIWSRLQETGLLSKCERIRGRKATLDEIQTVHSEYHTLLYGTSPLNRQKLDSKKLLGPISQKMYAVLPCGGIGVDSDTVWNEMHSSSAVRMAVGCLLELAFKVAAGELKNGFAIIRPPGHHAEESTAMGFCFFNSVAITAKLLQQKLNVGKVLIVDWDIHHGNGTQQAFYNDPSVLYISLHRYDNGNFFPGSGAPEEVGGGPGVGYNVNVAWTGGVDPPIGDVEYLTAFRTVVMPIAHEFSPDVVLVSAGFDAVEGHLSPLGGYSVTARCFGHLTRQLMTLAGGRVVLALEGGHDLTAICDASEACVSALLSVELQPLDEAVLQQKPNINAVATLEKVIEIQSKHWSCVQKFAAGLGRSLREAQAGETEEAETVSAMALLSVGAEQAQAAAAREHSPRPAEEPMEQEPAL
Chain of DNA topoisomerase 1 (P11387 whole entry): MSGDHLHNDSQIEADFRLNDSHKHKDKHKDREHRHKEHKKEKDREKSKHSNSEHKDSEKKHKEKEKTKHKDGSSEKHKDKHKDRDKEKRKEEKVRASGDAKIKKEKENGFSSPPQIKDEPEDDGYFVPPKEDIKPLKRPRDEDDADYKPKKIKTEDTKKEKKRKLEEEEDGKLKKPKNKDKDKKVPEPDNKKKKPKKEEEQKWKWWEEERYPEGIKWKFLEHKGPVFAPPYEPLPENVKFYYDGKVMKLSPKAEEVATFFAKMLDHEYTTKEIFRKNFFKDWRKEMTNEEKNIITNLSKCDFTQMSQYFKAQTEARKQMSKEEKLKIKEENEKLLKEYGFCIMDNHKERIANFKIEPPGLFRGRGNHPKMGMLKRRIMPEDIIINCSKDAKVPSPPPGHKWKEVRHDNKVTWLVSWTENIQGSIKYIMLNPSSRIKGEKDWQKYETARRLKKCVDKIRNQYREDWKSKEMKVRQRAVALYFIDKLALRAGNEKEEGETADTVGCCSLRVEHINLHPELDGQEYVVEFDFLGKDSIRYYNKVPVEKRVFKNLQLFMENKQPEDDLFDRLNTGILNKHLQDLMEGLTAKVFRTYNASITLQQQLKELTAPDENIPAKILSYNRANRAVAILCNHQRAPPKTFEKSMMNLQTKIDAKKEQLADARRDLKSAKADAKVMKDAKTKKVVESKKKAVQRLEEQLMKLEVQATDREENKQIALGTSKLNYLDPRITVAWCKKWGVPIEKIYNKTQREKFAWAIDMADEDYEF
Chain of Histone deacetylase 8 (Q9BY41 whole entry): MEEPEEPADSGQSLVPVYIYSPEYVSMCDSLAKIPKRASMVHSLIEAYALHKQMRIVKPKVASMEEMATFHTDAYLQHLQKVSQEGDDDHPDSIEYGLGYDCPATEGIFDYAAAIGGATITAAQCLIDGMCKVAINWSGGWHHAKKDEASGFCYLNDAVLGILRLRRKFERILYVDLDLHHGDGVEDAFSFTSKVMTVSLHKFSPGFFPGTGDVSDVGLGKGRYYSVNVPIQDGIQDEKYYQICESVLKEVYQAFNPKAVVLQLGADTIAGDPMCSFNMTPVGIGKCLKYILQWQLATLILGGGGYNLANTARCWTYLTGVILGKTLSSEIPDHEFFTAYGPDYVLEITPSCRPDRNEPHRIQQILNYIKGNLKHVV

- IC50 (DNA topoisomerase 1): 770 nM
Structure (SMILES): CCc1c2c(nc3ccc(O)cc13)-c1cc3c(c(=O)n1C2)COC(=O)[C@]3(O)CC [7-ETHYL-10-HYDROXYCAMPTOTHECIN]

- IC50 (Tubulin): 1270 nM
Structure (SMILES): Cc1ccc(Cn2cc(CSC(=S)N3CCN(C(=O)OC(C)(C)C)CC3)nn2)cc1

- IC50 (Histone deacetylase 3): 1800 nM
- IC50 (Histone deacetylase 8): 1400 nM
- IC50 [1]: 2000 nM
- IC50 (Histone deacetylase 2): 2100 nM
- IC50 (Histone deacetylase 1 [2]): 1800 nM
Structure (SMILES): O=C(Cc1ccc(/C=C/C(=O)c2ncc[nH]2)cc1)Nc1ccc(F)cc1

Structure (SMILES): COc1cc(/C=C/C(=O)c2ccc(NC(=O)c3ccccc3CN3C(=O)c4ccccc4C3=O)cc2)cc(OC)c1OC
- IC50 (Histone deacetylase 2): 430 nM
- IC50 (Histone deacetylase 1 [2]): 220 nM

Structure (SMILES): CC[C@]1(O)C(=O)OCc2c1cc1n(c2=O)Cc2c-1nc1ccc(O)cc1c2/C=N/OCCCCCC(=O)NO
- IC50 [3]: 9330 nM
- IC50 (DU-145): 30 nM
- IC50 (HepG2 [4]): 30 nM
- IC50 [5]: 1560 nM
- IC50 (A2780): 30 nM
- IC50 (A-431): 30 nM
- IC50 (CAPAN-1): 30 nM
- IC50 (NCI-H460): 30 nM
- IC50 [6]: 48 nM
- IC50 (HT-29 [7]): 30 nM
- IC50 [8]: 2240 nM
- IC50 [9]: 30 nM
- IC50 (HeLa): 30 nM
- IC50 (Histone deacetylase 1 [10]): 5260 nM

- IC50 (A549 [11]): 5960 nM
- IC50 (HepG2 [12]): 2880 nM
- IC50 (HT-29 [13]): 1880 nM
Structure (SMILES): COc1ccc2c3ccnc(C)c3n(CC3CCN(c4ncc(C(=O)NO)cn4)CC3)c2c1

Structure (SMILES): COc1ccc(-c2ocnc2-c2cc(Br)c(OC)c(OC)c2)cc1OCCCCCC(=O)NO
- IC50 (EA.hy 926): 410 nM

- IC50 (HCT-116 [14]): 12900 nM
- IC50 (HCC1937): 7960 nM
- IC50 [15]: 11800 nM
- IC50 (MCF7): 13800 nM
- IC50 (K562): 3940 nM
Structure (SMILES): O=C(c1cc(Cc2n[nH]c(=O)c3ccccc23)ccc1F)N1CCN(c2c3ccccc3nc3ccccc23)CC1

- IC50 (HepG2 [16]): 570 nM
- IC50 (SNU-475): 730 nM
Structure (SMILES): COc1ccc(S(=O)(=O)N(CCSC(=S)N2CCN(C)CC2)c2cc(OC)c(OC)c(OC)c2)cc1
- inhibition in vivo at 50 mg/kg (Bel-7402): 43%

- bioavailability [17]: 31%
- IC50 (HCT-116 [18]): 352 nM
- IC50 (A549 [19]): 141 nM
- IC50 [20]: 7 nM
- half-life [21]: 3.28 h
- IC50 (Tubulin): 990 nM
Structure (SMILES): CCOC(=O)Nc1nc2ccc(-c3cc(Cc4n[nH]c(=O)c5ccccc45)ccc3F)cc2[nH]1

Structure (SMILES): Cn1c(CCCCCCC(=O)NO)nc2ccc(N(CCCl)CCCl)cc21
- IC50 (Histone deacetylase 3): 25 nM
- IC50 [1]: 72 nM
- IC50 (Histone deacetylase 2): 10 nM
- IC50 (Histone deacetylase 5): 107 nM
- IC50 (Histone deacetylase 1 [2]): 17 nM
- IC50 (Histone deacetylase 4): 6.4 nM

- IC50 (Histone deacetylase 3): 5270 nM
- IC50 [1]: 77400 nM
- IC50 (Histone deacetylase 2): 3010 nM
- IC50 (MGC-803): 39 nM
Structure (SMILES): COc1ccc(CN(C(=O)Cc2ccc(C(=O)Nc3ccccc3N)cc2)c2cc(OC)c(OC)c(OC)c2)cc1O

- half-life [22]: 0.913 h
- CLint scaled [23]: 22.8 mL/min/kg
- IC50 (Tubulin): 2400 nM
Structure (SMILES): COc1ccc(-c2cccc(-c3cc(OC)c(OC)c(OC)c3)n2)cc1C(=O)NO
